# According to the kinase profiling compilation of Christmann-Franck et al. (2016):
# Biological target: SYK (human) (UniProt P43405)
# Experiment: radiometric filter-binding kinase assay, Kinase HotSpot
# Conditions: compound 0.5 µM; ATP 10 µM
row,SMILES,residual activity
1,CCc1nc(-c2ccc(OC)cc2)[nH]c1-c1ccncc1,98.7%
2,O=c1c(-c2ccc(F)cc2)c(-c2ccncc2)[nH]n1-c1ccc(Cl)cc1,98.9%
3,CCCCc1c(-c2ccc(O)cc2)[nH]c2nccnc12,53.5%
4,O=S(=O)(NCCNC/C=C/c1ccc(Br)cc1)c1cccc2cnccc12,77.7%
5,Nc1ncnc2c1cnn2-c1ccccc1,96%

# Biological target: PRKX (human) (UniProt P51817)
# Experiment: as above
# Conditions: compound 0.5 µM; ATP 10 µM
row,SMILES,residual activity
1,CCc1nc(-c2ccc(OC)cc2)[nH]c1-c1ccncc1,93.3%
2,O=c1c(-c2ccc(F)cc2)c(-c2ccncc2)[nH]n1-c1ccc(Cl)cc1,97%
3,CCCCc1c(-c2ccc(O)cc2)[nH]c2nccnc12,110%
4,O=S(=O)(NCCNC/C=C/c1ccc(Br)cc1)c1cccc2cnccc12,-2.49%
5,Nc1ncnc2c1cnn2-c1ccccc1,95.3%

# Biological target: HIPK3 (human) (UniProt Q9H422)
# Experiment: as above
# Conditions: compound 0.5 µM; ATP 10 µM
row,SMILES,residual activity
1,CCc1nc(-c2ccc(OC)cc2)[nH]c1-c1ccncc1,106%
2,O=c1c(-c2ccc(F)cc2)c(-c2ccncc2)[nH]n1-c1ccc(Cl)cc1,101%
3,CCCCc1c(-c2ccc(O)cc2)[nH]c2nccnc12,100%
4,O=S(=O)(NCCNC/C=C/c1ccc(Br)cc1)c1cccc2cnccc12,81.7%
5,Nc1ncnc2c1cnn2-c1ccccc1,97.6%

# Biological target: STK25 (human) (UniProt O00506)
# Experiment: as above
# Conditions: compound 0.5 µM; ATP 10 µM
row,SMILES,residual activity
1,CCc1nc(-c2ccc(OC)cc2)[nH]c1-c1ccncc1,116%
2,O=c1c(-c2ccc(F)cc2)c(-c2ccncc2)[nH]n1-c1ccc(Cl)cc1,111%
3,CCCCc1c(-c2ccc(O)cc2)[nH]c2nccnc12,91.4%
4,O=S(=O)(NCCNC/C=C/c1ccc(Br)cc1)c1cccc2cnccc12,104%
5,Nc1ncnc2c1cnn2-c1ccccc1,93.2%

# Biological target: CDK1 CCNB1 (human) (UniProt P06493+P14635)
# Experiment: as above
# Conditions: compound 0.5 µM; ATP 10 µM
row,SMILES,residual activity
1,CCc1nc(-c2ccc(OC)cc2)[nH]c1-c1ccncc1,102%
2,CCCCc1c(-c2ccc(O)cc2)[nH]c2nccnc12,45.2%
3,O=S(=O)(NCCNC/C=C/c1ccc(Br)cc1)c1cccc2cnccc12,93.3%

# Biological target: CAMK1 (human) (UniProt Q14012)
# Sequence (Q14012 whole entry, looked up): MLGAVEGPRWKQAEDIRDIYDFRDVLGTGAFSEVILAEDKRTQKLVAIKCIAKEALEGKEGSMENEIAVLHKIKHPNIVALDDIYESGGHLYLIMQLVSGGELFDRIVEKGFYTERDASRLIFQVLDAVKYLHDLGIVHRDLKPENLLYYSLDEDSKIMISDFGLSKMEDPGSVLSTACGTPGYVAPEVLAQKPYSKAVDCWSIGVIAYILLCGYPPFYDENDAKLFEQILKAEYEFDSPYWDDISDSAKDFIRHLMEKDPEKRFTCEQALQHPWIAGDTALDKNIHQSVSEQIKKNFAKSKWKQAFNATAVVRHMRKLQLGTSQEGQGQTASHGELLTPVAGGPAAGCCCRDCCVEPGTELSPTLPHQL
# Experiment: as above
# Conditions: compound 0.5 µM; ATP 10 µM
row,SMILES,residual activity
1,CCc1nc(-c2ccc(OC)cc2)[nH]c1-c1ccncc1,108%
2,O=c1c(-c2ccc(F)cc2)c(-c2ccncc2)[nH]n1-c1ccc(Cl)cc1,94.4%
3,CCCCc1c(-c2ccc(O)cc2)[nH]c2nccnc12,92.5%
4,O=S(=O)(NCCNC/C=C/c1ccc(Br)cc1)c1cccc2cnccc12,107%
5,Nc1ncnc2c1cnn2-c1ccccc1,97.5%

# Biological target: ROCK2 (human) (UniProt O75116)
# Sequence (O75116 whole entry, looked up): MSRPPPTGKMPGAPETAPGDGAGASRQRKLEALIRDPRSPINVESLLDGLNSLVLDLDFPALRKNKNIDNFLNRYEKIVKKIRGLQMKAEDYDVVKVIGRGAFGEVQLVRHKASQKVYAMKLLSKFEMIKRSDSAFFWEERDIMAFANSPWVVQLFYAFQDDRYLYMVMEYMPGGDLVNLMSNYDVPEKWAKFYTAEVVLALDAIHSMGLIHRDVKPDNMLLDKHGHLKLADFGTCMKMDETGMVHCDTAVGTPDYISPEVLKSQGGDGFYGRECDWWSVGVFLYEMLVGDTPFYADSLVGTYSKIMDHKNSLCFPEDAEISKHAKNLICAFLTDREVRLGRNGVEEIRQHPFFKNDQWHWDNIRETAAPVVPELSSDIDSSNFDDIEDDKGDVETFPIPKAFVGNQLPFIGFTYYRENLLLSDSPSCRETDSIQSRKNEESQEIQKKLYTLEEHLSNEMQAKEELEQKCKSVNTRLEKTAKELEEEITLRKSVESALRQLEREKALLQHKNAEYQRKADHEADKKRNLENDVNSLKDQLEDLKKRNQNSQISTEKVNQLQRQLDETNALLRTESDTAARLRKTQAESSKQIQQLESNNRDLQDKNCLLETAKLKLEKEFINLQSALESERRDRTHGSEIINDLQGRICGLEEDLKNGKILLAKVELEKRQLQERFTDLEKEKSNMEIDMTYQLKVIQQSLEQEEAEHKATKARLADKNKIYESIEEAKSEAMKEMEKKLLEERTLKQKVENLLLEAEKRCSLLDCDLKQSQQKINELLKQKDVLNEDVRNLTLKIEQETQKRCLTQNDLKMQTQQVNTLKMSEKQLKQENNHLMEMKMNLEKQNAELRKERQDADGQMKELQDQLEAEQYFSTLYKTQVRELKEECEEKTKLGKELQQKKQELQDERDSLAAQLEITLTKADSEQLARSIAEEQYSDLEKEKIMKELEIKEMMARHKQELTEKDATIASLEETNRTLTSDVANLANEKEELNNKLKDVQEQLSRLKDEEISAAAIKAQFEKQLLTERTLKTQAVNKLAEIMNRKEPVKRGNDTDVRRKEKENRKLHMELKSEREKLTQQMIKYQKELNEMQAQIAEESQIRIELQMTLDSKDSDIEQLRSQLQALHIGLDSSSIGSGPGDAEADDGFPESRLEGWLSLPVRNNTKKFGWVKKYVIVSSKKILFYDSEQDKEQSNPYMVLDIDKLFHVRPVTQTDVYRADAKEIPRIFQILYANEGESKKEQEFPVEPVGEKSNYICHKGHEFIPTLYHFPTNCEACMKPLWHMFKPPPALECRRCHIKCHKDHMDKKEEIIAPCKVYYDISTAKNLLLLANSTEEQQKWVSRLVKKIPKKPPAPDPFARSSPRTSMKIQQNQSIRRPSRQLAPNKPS
# Experiment: as above
# Conditions: compound 0.5 µM; ATP 10 µM
row,SMILES,residual activity
1,CCc1nc(-c2ccc(OC)cc2)[nH]c1-c1ccncc1,101%
2,O=c1c(-c2ccc(F)cc2)c(-c2ccncc2)[nH]n1-c1ccc(Cl)cc1,89.5%
3,CCCCc1c(-c2ccc(O)cc2)[nH]c2nccnc12,97.5%
4,O=S(=O)(NCCNC/C=C/c1ccc(Br)cc1)c1cccc2cnccc12,15.4%
5,Nc1ncnc2c1cnn2-c1ccccc1,83.2%

# Biological target: PDPK1 (human) (UniProt O15530)
# Experiment: as above
# Conditions: compound 0.5 µM; ATP 10 µM
row,SMILES,residual activity
1,CCc1nc(-c2ccc(OC)cc2)[nH]c1-c1ccncc1,96%
2,O=c1c(-c2ccc(F)cc2)c(-c2ccncc2)[nH]n1-c1ccc(Cl)cc1,104%
3,CCCCc1c(-c2ccc(O)cc2)[nH]c2nccnc12,95.9%
4,O=S(=O)(NCCNC/C=C/c1ccc(Br)cc1)c1cccc2cnccc12,94.1%
5,Nc1ncnc2c1cnn2-c1ccccc1,104%

# Biological target: PAK4 (human) (UniProt O96013)
# Sequence (O96013 whole entry, looked up): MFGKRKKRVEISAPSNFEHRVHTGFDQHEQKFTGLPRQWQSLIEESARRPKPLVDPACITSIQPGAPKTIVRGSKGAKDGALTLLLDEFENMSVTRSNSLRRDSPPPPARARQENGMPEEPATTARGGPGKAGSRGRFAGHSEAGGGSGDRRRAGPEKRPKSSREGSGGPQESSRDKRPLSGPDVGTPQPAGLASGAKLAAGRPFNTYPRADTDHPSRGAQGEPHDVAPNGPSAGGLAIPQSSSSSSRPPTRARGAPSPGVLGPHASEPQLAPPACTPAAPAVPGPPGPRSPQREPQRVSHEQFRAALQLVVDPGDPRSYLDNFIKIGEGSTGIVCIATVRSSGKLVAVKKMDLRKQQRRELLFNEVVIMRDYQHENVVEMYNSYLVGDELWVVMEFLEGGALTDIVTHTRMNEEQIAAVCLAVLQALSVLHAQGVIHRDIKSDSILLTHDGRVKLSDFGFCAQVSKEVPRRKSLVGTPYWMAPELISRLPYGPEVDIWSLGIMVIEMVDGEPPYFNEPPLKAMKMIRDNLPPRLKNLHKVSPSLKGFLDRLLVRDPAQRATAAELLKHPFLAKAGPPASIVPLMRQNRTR
# Experiment: as above
# Conditions: compound 0.5 µM; ATP 10 µM
row,SMILES,residual activity
1,CCc1nc(-c2ccc(OC)cc2)[nH]c1-c1ccncc1,118%
2,O=c1c(-c2ccc(F)cc2)c(-c2ccncc2)[nH]n1-c1ccc(Cl)cc1,82%
3,CCCCc1c(-c2ccc(O)cc2)[nH]c2nccnc12,108%
4,O=S(=O)(NCCNC/C=C/c1ccc(Br)cc1)c1cccc2cnccc12,98.9%
5,Nc1ncnc2c1cnn2-c1ccccc1,86.5%

# Biological target: CDK6 CCND1 (human) (UniProt Q00534+P24385)
# Experiment: as above
# Conditions: compound 0.5 µM; ATP 10 µM
row,SMILES,residual activity
1,CCc1nc(-c2ccc(OC)cc2)[nH]c1-c1ccncc1,101%
2,O=c1c(-c2ccc(F)cc2)c(-c2ccncc2)[nH]n1-c1ccc(Cl)cc1,92.3%
3,CCCCc1c(-c2ccc(O)cc2)[nH]c2nccnc12,61.6%
4,O=S(=O)(NCCNC/C=C/c1ccc(Br)cc1)c1cccc2cnccc12,77.9%
5,Nc1ncnc2c1cnn2-c1ccccc1,94.7%

# Biological target: NEK1 (human) (UniProt Q96PY6)
# Experiment: as above
# Conditions: compound 0.5 µM; ATP 10 µM
row,SMILES,residual activity
1,CCc1nc(-c2ccc(OC)cc2)[nH]c1-c1ccncc1,98.9%
2,O=c1c(-c2ccc(F)cc2)c(-c2ccncc2)[nH]n1-c1ccc(Cl)cc1,78.7%
3,CCCCc1c(-c2ccc(O)cc2)[nH]c2nccnc12,92.2%
4,O=S(=O)(NCCNC/C=C/c1ccc(Br)cc1)c1cccc2cnccc12,94.4%
5,Nc1ncnc2c1cnn2-c1ccccc1,62.4%

# Biological target: FGFR1 (human) (UniProt P11362)
# Experiment: as above
# Conditions: compound 0.5 µM; ATP 10 µM
row,SMILES,residual activity
1,CCc1nc(-c2ccc(OC)cc2)[nH]c1-c1ccncc1,88.1%
2,O=c1c(-c2ccc(F)cc2)c(-c2ccncc2)[nH]n1-c1ccc(Cl)cc1,93.7%
3,CCCCc1c(-c2ccc(O)cc2)[nH]c2nccnc12,81.8%
4,O=S(=O)(NCCNC/C=C/c1ccc(Br)cc1)c1cccc2cnccc12,87.6%
5,Nc1ncnc2c1cnn2-c1ccccc1,93%

# Biological target: SRMS (human) (UniProt Q9H3Y6)
# Sequence (Q9H3Y6 whole entry, looked up): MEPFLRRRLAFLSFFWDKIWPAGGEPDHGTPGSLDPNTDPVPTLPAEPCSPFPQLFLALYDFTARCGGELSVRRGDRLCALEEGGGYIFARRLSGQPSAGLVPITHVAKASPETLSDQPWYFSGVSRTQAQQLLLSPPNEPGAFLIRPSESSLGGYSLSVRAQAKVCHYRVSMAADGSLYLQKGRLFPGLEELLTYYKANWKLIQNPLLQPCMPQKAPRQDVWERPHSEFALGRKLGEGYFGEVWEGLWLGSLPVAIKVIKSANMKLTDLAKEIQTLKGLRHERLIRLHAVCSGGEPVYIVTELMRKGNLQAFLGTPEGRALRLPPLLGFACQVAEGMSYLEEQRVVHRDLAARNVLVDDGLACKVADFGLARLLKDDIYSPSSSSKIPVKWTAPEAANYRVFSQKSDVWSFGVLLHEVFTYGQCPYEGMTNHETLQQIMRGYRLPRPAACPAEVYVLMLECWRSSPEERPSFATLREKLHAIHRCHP
# Experiment: as above
# Conditions: compound 0.5 µM; ATP 10 µM
row,SMILES,residual activity
1,CCc1nc(-c2ccc(OC)cc2)[nH]c1-c1ccncc1,106%
2,O=c1c(-c2ccc(F)cc2)c(-c2ccncc2)[nH]n1-c1ccc(Cl)cc1,104%
3,CCCCc1c(-c2ccc(O)cc2)[nH]c2nccnc12,95.4%
4,O=S(=O)(NCCNC/C=C/c1ccc(Br)cc1)c1cccc2cnccc12,97.8%
5,Nc1ncnc2c1cnn2-c1ccccc1,104%

# Biological target: HIPK4 (human) (UniProt Q8NE63)
# Experiment: as above
# Conditions: compound 0.5 µM; ATP 10 µM
row,SMILES,residual activity
1,CCc1nc(-c2ccc(OC)cc2)[nH]c1-c1ccncc1,90%
2,O=c1c(-c2ccc(F)cc2)c(-c2ccncc2)[nH]n1-c1ccc(Cl)cc1,94.6%
3,CCCCc1c(-c2ccc(O)cc2)[nH]c2nccnc12,108%
4,O=S(=O)(NCCNC/C=C/c1ccc(Br)cc1)c1cccc2cnccc12,97.7%
5,Nc1ncnc2c1cnn2-c1ccccc1,86.3%

# Biological target: NEK2 (human) (UniProt P51955)
# Sequence (P51955 whole entry, looked up): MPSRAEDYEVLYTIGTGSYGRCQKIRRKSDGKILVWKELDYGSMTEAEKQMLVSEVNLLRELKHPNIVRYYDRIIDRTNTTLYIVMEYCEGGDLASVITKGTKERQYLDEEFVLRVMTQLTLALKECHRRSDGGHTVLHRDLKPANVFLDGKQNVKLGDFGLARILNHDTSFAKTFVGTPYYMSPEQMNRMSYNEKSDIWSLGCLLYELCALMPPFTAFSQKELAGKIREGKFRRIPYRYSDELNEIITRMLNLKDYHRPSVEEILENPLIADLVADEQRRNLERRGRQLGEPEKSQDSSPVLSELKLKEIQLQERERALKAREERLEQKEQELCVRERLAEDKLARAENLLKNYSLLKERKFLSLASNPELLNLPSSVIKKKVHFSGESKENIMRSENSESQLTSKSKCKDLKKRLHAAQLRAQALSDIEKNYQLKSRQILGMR
# Experiment: as above
# Conditions: compound 0.5 µM; ATP 10 µM
row,SMILES,residual activity
1,CCc1nc(-c2ccc(OC)cc2)[nH]c1-c1ccncc1,100%
2,O=c1c(-c2ccc(F)cc2)c(-c2ccncc2)[nH]n1-c1ccc(Cl)cc1,85.4%
3,CCCCc1c(-c2ccc(O)cc2)[nH]c2nccnc12,106%
4,O=S(=O)(NCCNC/C=C/c1ccc(Br)cc1)c1cccc2cnccc12,97.1%
5,Nc1ncnc2c1cnn2-c1ccccc1,98.8%

# Biological target: GRK4 (human) (UniProt P32298)
# Sequence (P32298 whole entry, looked up): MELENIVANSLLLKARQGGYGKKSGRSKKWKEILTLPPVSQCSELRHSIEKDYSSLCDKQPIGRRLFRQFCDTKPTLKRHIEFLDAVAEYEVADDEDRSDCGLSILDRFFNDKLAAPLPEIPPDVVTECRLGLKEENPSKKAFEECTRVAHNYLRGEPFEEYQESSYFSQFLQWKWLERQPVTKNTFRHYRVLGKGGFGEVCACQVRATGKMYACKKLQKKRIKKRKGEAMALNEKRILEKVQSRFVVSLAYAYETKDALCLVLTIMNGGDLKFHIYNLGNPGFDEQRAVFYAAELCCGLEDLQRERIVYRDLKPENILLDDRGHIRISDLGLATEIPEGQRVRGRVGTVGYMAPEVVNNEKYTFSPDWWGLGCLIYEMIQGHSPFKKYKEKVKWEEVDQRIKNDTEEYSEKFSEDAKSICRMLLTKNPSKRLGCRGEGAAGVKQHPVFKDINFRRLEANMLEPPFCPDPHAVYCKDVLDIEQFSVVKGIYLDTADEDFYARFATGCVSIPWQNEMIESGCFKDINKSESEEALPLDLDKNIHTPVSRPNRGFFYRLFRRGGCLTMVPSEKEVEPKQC
# Experiment: as above
# Conditions: compound 0.5 µM; ATP 10 µM
row,SMILES,residual activity
1,CCc1nc(-c2ccc(OC)cc2)[nH]c1-c1ccncc1,99.3%
2,O=c1c(-c2ccc(F)cc2)c(-c2ccncc2)[nH]n1-c1ccc(Cl)cc1,97.9%
3,CCCCc1c(-c2ccc(O)cc2)[nH]c2nccnc12,101%
4,O=S(=O)(NCCNC/C=C/c1ccc(Br)cc1)c1cccc2cnccc12,95.8%
5,Nc1ncnc2c1cnn2-c1ccccc1,106%

# Biological target: JAK2 JH1 JH2 (human) (UniProt O60674)
# Experiment: as above
# Conditions: compound 0.5 µM; ATP 10 µM
row,SMILES,residual activity
1,CCc1nc(-c2ccc(OC)cc2)[nH]c1-c1ccncc1,96.7%
2,O=c1c(-c2ccc(F)cc2)c(-c2ccncc2)[nH]n1-c1ccc(Cl)cc1,95.1%
3,CCCCc1c(-c2ccc(O)cc2)[nH]c2nccnc12,77.8%
4,O=S(=O)(NCCNC/C=C/c1ccc(Br)cc1)c1cccc2cnccc12,109%
5,Nc1ncnc2c1cnn2-c1ccccc1,91.6%

# Biological target: CDK1 CCNA2 (human) (UniProt P06493+P20248)
# Experiment: as above
# Conditions: compound 0.5 µM; ATP 10 µM
row,SMILES,residual activity
1,CCc1nc(-c2ccc(OC)cc2)[nH]c1-c1ccncc1,91.8%
2,O=c1c(-c2ccc(F)cc2)c(-c2ccncc2)[nH]n1-c1ccc(Cl)cc1,83.1%
3,CCCCc1c(-c2ccc(O)cc2)[nH]c2nccnc12,60.3%
4,O=S(=O)(NCCNC/C=C/c1ccc(Br)cc1)c1cccc2cnccc12,95.3%

# Biological target: AKT1 (human) (UniProt P31749)
# Experiment: as above
# Conditions: compound 0.5 µM; ATP 10 µM
row,SMILES,residual activity
1,O=c1c(-c2ccc(F)cc2)c(-c2ccncc2)[nH]n1-c1ccc(Cl)cc1,96.4%
2,O=S(=O)(NCCNC/C=C/c1ccc(Br)cc1)c1cccc2cnccc12,41.6%
3,Nc1ncnc2c1cnn2-c1ccccc1,103%

# Biological target: MAP2K1 (human) (UniProt Q02750)
# Sequence (Q02750 whole entry, looked up): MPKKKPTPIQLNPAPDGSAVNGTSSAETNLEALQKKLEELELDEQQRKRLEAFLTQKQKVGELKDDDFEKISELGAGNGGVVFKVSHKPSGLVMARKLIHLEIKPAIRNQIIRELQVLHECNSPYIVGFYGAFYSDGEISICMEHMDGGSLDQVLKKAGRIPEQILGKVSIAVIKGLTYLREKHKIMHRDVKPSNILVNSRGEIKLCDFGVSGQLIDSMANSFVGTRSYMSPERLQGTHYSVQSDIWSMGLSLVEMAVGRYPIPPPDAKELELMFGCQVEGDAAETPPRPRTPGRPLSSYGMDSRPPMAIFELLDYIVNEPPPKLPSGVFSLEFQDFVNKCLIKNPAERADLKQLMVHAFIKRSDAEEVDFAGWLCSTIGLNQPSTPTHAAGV
# Experiment: as above
# Conditions: compound 0.5 µM; ATP 10 µM
row,SMILES,residual activity
1,CCc1nc(-c2ccc(OC)cc2)[nH]c1-c1ccncc1,97.8%
2,O=c1c(-c2ccc(F)cc2)c(-c2ccncc2)[nH]n1-c1ccc(Cl)cc1,70.1%
3,CCCCc1c(-c2ccc(O)cc2)[nH]c2nccnc12,94.8%
4,O=S(=O)(NCCNC/C=C/c1ccc(Br)cc1)c1cccc2cnccc12,90.5%
5,Nc1ncnc2c1cnn2-c1ccccc1,93.9%

# Biological target: FRK (human) (UniProt P42685)
# Sequence (P42685 whole entry, looked up): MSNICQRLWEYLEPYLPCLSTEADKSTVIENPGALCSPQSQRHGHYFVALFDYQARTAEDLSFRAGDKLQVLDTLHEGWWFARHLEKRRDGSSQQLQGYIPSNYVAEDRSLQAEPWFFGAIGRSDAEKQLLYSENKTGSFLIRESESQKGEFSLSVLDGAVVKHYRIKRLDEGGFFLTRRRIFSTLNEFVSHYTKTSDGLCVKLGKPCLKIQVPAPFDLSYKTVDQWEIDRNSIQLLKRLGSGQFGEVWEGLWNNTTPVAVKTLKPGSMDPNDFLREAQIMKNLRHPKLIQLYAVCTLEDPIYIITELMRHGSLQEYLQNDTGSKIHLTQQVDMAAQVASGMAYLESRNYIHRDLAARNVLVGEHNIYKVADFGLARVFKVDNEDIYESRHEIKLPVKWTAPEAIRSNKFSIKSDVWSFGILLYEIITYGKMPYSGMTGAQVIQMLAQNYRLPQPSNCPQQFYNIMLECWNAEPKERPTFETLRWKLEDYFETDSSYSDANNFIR
# Experiment: as above
# Conditions: compound 0.5 µM; ATP 10 µM
row,SMILES,residual activity
1,CCc1nc(-c2ccc(OC)cc2)[nH]c1-c1ccncc1,101%
2,O=c1c(-c2ccc(F)cc2)c(-c2ccncc2)[nH]n1-c1ccc(Cl)cc1,78.5%
3,CCCCc1c(-c2ccc(O)cc2)[nH]c2nccnc12,87.6%
4,Nc1ncnc2c1cnn2-c1ccccc1,101%
